Results: ChEMBL document CHEMBL5465560, “Selectivity Literature for EUbOPEN Chemogenomic Library” (2024)

Legend:
[1] = target: T1, Dual specificity protein kinase TTK (Homo sapiens) (UniProt P33981); conditions: at 10 µM
T1 sequence (whole entry): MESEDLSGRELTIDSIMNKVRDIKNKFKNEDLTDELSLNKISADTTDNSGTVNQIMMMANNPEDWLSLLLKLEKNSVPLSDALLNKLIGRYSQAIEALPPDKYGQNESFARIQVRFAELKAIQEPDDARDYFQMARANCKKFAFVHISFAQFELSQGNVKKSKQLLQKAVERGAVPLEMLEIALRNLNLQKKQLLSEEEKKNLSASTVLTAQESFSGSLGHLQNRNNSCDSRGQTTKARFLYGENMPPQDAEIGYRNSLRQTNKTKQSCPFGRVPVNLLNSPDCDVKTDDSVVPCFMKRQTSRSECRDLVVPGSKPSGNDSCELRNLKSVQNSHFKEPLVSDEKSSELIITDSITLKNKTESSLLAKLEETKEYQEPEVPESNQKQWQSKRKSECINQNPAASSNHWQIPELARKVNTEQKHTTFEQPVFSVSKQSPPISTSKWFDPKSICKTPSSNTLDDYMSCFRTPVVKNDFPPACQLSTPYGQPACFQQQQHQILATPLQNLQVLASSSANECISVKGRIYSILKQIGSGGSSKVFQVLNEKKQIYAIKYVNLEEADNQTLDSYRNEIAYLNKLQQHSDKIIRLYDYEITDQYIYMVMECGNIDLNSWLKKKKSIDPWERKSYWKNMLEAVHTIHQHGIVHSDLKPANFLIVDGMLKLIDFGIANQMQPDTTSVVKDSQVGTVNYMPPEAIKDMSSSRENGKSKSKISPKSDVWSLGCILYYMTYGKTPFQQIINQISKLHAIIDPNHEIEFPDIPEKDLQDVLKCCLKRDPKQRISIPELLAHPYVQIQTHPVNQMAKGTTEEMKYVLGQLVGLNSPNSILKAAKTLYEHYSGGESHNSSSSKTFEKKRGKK

[2] = test system: Proto-oncogene tyrosine-protein kinase receptor Ret (Homo sapiens), P07949 [V804M]; test: (§1) Selectivity interaction (KinomeScan (DiscoverX)) EUB0000229b RET; conditions: at 1 µM
Chain of Proto-oncogene tyrosine-protein kinase receptor Ret (Homo sapiens), P07949 [V804M] (P07949 whole entry V804M): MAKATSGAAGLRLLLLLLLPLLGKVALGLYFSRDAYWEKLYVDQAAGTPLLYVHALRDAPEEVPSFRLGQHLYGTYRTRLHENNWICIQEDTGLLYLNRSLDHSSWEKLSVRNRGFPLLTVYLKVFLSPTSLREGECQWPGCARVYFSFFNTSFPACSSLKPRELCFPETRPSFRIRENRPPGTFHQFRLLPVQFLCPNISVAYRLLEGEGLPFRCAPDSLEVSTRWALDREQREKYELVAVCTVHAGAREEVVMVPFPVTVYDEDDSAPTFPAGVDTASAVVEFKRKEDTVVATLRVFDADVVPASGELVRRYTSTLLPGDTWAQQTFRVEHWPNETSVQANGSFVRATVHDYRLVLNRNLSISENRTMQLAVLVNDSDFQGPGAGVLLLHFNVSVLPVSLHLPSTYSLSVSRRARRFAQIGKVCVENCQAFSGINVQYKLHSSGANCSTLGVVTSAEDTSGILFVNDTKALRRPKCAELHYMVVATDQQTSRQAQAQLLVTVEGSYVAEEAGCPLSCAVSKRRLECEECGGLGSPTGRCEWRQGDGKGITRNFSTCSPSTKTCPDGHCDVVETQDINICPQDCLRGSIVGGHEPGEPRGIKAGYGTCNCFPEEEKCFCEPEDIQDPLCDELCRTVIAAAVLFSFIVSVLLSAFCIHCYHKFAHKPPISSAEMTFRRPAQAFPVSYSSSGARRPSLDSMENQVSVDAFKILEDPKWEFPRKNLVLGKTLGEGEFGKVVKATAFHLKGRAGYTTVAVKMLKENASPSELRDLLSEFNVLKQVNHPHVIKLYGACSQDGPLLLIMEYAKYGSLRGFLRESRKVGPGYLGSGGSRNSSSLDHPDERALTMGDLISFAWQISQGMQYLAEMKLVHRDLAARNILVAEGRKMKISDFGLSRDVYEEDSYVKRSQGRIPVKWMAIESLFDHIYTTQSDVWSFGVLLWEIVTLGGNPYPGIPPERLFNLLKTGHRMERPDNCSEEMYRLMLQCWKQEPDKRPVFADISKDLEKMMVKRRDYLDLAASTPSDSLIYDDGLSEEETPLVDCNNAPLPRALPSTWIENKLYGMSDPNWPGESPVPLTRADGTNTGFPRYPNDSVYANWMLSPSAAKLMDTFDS

[3] = target: Proto-oncogene tyrosine-protein kinase receptor Ret (Homo sapiens, UniProt P07949); test: as §1; conditions: at 10 µM
Chain of Proto-oncogene tyrosine-protein kinase receptor Ret (P07949 whole entry): as the sequence (P07949 whole entry V804M) above, with M804V counted along it

[4] = test system: Proto-oncogene tyrosine-protein kinase receptor Ret (Homo sapiens), P07949 [V804L]; test: as §1; conditions: at 1 µM
Chain of Proto-oncogene tyrosine-protein kinase receptor Ret (Homo sapiens), P07949 [V804L] (P07949 whole entry V804L): as the sequence (P07949 whole entry V804M) above, with M804L counted along it

[5] = test system: Proto-oncogene tyrosine-protein kinase receptor Ret (Homo sapiens), P07949 [M918T]; test: as §1; conditions: at 1 µM
Chain of Proto-oncogene tyrosine-protein kinase receptor Ret (Homo sapiens), P07949 [M918T] (P07949 whole entry M918T): as the sequence (P07949 whole entry V804M) above, with M804V, M918T counted along it

[6] = target: Mitogen-activated protein kinase 6 (Homo sapiens) (UniProt Q16659); test: Selectivity interaction (KinomeScan (DiscoverX)) EUB0000666a MAPK6; conditions: at 10 µM
Chain of Mitogen-activated protein kinase 6 (Homo sapiens) (Q16659 whole entry): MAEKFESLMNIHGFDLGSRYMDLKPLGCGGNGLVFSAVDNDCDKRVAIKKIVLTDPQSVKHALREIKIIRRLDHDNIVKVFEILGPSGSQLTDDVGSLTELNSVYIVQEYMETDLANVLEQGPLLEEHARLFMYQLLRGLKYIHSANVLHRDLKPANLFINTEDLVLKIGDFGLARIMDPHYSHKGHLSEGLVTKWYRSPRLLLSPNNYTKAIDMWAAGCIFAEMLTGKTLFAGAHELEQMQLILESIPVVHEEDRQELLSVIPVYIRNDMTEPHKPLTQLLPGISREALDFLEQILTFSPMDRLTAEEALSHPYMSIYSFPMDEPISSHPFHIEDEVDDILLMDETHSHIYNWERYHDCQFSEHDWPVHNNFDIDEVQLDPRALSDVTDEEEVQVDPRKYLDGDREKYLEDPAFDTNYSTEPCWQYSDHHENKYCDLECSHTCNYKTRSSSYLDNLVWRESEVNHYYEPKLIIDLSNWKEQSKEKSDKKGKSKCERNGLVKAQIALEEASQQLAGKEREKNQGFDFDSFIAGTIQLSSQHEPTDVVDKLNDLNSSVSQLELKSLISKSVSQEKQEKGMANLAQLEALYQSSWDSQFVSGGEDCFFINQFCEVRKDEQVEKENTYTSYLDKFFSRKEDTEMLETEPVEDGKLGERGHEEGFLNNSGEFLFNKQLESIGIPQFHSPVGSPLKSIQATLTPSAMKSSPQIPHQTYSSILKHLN

[7] = target: T2, Uncharacterized serine/threonine-protein kinase SBK3 (Homo sapiens) (UniProt P0C264); test: Selectivity interaction (KinomeScan (DiscoverX)) EUB0001049a SBK3; conditions: at 1 µM
T2 sequence (whole entry): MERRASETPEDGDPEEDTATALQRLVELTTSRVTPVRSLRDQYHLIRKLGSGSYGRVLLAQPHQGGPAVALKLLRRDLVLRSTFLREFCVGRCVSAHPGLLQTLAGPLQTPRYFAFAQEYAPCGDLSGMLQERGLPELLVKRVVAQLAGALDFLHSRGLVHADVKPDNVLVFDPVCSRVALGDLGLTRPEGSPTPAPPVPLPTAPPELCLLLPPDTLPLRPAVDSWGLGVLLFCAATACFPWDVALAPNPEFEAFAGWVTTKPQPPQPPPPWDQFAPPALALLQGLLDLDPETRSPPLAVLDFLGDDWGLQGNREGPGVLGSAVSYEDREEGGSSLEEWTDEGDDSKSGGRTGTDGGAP

[8] = target: T3, Mitogen-activated protein kinase kinase kinase 6 (Homo sapiens) (UniProt O95382); test: Selectivity interaction (KinomeScan (DiscoverX)) EUB0000045b MAP3K6
T3 sequence (whole entry): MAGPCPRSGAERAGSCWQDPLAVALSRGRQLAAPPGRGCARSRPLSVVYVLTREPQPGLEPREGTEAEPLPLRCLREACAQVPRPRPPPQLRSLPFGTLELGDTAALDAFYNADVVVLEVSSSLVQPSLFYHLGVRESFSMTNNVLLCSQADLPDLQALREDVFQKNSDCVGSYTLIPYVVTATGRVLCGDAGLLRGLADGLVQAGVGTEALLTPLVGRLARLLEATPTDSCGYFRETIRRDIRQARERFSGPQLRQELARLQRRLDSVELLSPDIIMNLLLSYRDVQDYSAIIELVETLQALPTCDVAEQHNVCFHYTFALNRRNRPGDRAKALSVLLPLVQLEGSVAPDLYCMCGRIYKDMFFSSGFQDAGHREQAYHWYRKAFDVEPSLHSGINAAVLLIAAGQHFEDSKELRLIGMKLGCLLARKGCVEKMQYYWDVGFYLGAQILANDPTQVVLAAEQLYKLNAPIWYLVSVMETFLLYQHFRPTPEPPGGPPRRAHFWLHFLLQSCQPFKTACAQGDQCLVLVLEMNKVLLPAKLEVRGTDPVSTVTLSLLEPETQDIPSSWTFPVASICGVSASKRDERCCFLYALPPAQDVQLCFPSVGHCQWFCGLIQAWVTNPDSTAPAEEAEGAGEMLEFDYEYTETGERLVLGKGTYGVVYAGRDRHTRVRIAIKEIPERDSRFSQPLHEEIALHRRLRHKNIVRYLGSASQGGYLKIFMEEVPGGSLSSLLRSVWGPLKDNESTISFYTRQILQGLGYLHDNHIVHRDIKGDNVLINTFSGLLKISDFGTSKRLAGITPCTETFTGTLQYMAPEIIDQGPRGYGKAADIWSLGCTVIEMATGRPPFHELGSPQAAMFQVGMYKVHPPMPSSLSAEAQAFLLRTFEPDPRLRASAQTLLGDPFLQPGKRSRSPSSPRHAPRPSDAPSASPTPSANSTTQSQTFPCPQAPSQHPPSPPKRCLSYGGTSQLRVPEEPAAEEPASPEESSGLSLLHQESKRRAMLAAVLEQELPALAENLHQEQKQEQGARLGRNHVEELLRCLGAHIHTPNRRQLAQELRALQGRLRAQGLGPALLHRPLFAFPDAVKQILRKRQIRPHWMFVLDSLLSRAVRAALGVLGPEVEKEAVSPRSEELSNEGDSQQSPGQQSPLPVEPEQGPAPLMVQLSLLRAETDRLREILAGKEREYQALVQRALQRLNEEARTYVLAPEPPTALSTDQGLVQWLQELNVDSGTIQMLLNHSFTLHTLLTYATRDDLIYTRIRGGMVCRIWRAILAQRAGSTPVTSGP

[9] = target: Phosphatidylinositol 4,5-bisphosphate 3-kinase catalytic subunit beta isoform (Homo sapiens) (UniProt P42338); test: Selectivity interaction (Kinase panel (literature)) EUB0001199aCl PIK3CB; conditions: at 1 µM
Chain of Phosphatidylinositol 4,5-bisphosphate 3-kinase catalytic subunit beta isoform (Homo sapiens) (P42338 whole entry, looked up, canonical isoform): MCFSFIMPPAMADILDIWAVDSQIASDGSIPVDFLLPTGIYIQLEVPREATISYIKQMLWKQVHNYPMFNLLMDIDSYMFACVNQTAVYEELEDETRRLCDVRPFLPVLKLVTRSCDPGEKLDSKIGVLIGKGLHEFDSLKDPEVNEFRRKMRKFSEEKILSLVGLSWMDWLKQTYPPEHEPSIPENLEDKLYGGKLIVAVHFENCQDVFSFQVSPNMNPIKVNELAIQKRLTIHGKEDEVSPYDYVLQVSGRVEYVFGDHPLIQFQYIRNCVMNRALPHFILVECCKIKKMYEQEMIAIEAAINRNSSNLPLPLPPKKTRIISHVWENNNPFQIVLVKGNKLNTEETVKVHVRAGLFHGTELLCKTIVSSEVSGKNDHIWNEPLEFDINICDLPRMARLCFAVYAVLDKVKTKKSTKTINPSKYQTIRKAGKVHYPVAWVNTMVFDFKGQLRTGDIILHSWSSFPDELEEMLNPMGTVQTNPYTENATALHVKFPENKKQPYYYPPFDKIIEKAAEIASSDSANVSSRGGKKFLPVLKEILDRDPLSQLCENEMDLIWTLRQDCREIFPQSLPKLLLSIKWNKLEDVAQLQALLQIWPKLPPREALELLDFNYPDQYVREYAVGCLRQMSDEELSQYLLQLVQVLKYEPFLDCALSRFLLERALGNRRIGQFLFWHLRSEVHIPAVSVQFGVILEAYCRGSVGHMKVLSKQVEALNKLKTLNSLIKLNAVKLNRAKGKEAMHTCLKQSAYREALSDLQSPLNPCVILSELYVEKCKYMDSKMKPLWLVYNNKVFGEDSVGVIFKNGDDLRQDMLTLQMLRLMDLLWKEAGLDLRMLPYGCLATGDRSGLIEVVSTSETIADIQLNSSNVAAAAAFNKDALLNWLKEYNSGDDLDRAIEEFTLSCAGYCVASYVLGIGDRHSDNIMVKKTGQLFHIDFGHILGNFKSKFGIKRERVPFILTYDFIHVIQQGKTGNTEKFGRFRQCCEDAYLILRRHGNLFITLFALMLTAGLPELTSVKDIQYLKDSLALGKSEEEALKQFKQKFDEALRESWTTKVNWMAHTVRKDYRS

With `CCN(CC)CCCCNc1ncc2cc(-c3cc(OC)cc(OC)c3)c(NC(=O)NC(C)(C)C)nc2n1` as the compound, how does the % of control [1] read?
The % of control was 100%.

Which % binding [2] does the source give for `COc1cc(N(C)c2ccnc3ccc(C(F)(F)F)cc23)cc(OC)c1OC` here?
Its % binding is 89%.

What about the % binding [3] of the same compound?
Its % binding is 97%.

What about the % binding [4] of the same compound?
Its % binding is 96%.

What about the % binding [5] of the same compound?
Its % binding is 100%.

For `O=C(NOC[C@H](O)CO)c1ccc(F)c(F)c1Nc1ccc(I)cc1F`, which % of control [6] is on record?
Its % of control is 83%.

With `COc1cc(Nc2nc(C)cc(-c3cnn4nc(OC)ccc34)n2)cc(C(F)(F)F)c1` as the compound, how does the % of control [7] read?
Its % of control is 87%.

Which % of control ([8]; at 1 µM) does the source give for `C=CC(=O)Nc1cc(-n2c(=O)ccc3cnc4ccc(-c5ccc(NS(C)(=O)=O)cc5)cc4c32)ccc1C` here?
Its % of control is 100%.

What about the % of control ([8]; at 10 µM) of the same compound?
The % of control was 100%.

For `CN1Cc2nccc(-c3cn(C)nc3-c3ccc(F)cc3)c2C1=O`, which % of inhibition [9] is on record?
Its % of inhibition is 1%.
